We go through 24 molecules from patent US11866430B2, “Naphthyridinone compounds useful as T cell activators” (priority 2018, dated 2024).

The target in one experiment is human DGKζ (Homo sapiens (Human), UniProt Q13574). The experiment in a line: DGKζ assay (detergent/lipid micelle substrate). As to conditions: detergent/lipid micelle substrate; read-out: DGKζ IC50. It counts as biochemical. The procedure, abridged:
(§1)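 Enzymes were baculovirus/Sf9 full-length human DGKα or DGKζ with His tag. The substrate was PS/DAG in octyl glucoside micelles, in MOPS pH 7.5 buffer with NaCl, MgCl2, CaCl2 and DTT.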

Experiment [1] deals with pre-activated CD4 T cells and Raji cells. As to the kind of experiment: Raji CD4 T Cell IL2 Assay. Type of experiment: cell-based. The settings on record: Homo sapiens, Raji.
The next experiment deals with human DGKα (Homo sapiens (Human), UniProt P23743). As to the kind of experiment: biochemical. The settings on record: detergent/lipid micelle substrate; read-out: DGKα IC50. The procedure, abridged:
as §1

Chain of human DGKα (P23743 other isoform, or with tags, fused parts or gaps): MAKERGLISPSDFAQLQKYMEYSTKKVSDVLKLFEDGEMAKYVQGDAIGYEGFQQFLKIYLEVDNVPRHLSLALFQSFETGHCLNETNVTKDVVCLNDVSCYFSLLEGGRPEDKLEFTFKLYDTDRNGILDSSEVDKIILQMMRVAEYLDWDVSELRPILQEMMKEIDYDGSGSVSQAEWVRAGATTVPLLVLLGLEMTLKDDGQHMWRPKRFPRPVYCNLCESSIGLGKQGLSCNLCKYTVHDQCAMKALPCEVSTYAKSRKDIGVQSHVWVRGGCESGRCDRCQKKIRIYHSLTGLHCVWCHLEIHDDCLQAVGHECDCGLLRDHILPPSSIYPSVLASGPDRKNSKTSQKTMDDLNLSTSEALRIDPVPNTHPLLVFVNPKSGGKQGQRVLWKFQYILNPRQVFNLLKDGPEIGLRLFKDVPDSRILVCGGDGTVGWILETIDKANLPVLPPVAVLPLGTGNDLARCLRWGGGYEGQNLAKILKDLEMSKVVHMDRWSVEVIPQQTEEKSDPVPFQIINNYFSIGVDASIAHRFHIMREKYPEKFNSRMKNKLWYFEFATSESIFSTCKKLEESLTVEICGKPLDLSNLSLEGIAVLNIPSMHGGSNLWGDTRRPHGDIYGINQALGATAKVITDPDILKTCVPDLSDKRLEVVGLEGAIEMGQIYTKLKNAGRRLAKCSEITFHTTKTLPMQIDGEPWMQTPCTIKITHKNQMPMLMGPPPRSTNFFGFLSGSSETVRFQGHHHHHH
Chain of human DGKζ (Q13574 other isoform, or with tags, fused parts or gaps): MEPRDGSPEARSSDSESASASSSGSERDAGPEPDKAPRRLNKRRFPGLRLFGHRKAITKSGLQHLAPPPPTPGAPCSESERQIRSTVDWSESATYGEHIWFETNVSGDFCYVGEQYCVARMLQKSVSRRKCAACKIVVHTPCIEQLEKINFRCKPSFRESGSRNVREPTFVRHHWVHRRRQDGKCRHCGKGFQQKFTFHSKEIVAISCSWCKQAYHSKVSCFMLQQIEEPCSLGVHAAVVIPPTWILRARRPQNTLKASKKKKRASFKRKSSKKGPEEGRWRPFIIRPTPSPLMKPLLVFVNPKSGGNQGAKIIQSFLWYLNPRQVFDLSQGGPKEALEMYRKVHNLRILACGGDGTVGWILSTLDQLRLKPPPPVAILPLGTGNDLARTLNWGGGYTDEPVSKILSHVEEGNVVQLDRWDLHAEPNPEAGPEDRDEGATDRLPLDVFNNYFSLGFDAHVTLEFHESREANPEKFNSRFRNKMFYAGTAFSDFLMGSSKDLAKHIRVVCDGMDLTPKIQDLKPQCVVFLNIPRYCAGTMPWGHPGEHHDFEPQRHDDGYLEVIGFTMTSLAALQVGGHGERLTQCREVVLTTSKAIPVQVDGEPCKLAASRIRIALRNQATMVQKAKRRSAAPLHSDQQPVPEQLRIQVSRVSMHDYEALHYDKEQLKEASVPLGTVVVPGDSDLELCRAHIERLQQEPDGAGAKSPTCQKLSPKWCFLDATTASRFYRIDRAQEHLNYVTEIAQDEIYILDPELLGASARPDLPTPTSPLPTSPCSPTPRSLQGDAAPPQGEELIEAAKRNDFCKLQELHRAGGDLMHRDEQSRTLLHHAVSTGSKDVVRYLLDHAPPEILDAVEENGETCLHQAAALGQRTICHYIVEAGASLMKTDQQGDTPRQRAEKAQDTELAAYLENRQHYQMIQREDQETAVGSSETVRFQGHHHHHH

Turning to `Cn1c(=O)c(C#N)c(N2CCN(Cc3c(O)cccc3F)CC2)c2nc(Br)ccc21` [Example 294, 6-bromo-4-{4-[(2-fluoro-6-hydroxyphenyl)methyl]piperazin-1-yl}-1-methyl-2-oxo-1,2-dihydro-1,5-naphthyridine-3-carbonitrile], the figures for the 50% inhibitory concentration (IC50) (at human DGKζ; in experiment [1]; at human DGKα) were over 240000 nM, 140 nM and 110 nM, respectively.

Take `Cc1ccc2c(n1)c(N1CCN(Cc3cc(Cl)ccc3O)CC1)c(C#N)c(=O)n2C` [Example 296, 4-{4-[(5-chloro-2-hydroxyphenyl)methyl]piperazin-1-yl}-1,6-dimethyl-2-oxo-1,2-dihydro-1,5-naphthyridine-3-carbonitrile]: the IC50 amounted to 150000 nM on human DGKζ, 150 nM in experiment [1] and 980 nM at human DGKα.

Turning to `COc1ccccc1CN1CCN(c2c(C#N)c(=O)n(C)c3ccc(Br)nc23)CC1` [Example 297, 6-bromo-4-{4-[4(2-methoxyphenyl)methyl]piperazin-1-yl}-1-methyl-2-oxo-1,2-dihydro-1,5-naphthyridine-3-carbonitrile], the half-inhibitory concentration (IC50) on human DGKζ is over 240000 nM; in experiment [1], 160 nM; at human DGKα, 890 nM.

Take `Cn1c(=O)c(C#N)c(N2CCN(Cc3cc(F)cc(F)c3O)CC2)c2nc(Cl)ccc21` [Example 298, 6-chloro-4-{4-[(3,5-difluoro-2-hydroxyphenyl)methyl]piperazin-1-yl}-1-methyl-2-oxo-1,2-dihydro-1,5-naphthyridine-3-carbonitrile]: the values for the concentration for half-maximal inhibition (IC50) (at human DGKζ; in experiment [1]; on human DGKα) were 27000 nM, 160 nM and 830 nM, respectively.

With `Cn1c(=O)c(C#N)c(N2CCN(Cc3cccc4c3NCC4)CC2)c2nc(Br)ccc21` [Example 299, 6-bromo-4-{4-[(2,3-dihydro-1H-indol-7-yl)methyl]piperazin-1-yl}-1-methyl-2-oxo-1,2-dihydro-1,5-naphthyridine-3-carbonitrile], the half-inhibitory concentration (IC50) on human DGKζ was over 240000 nM; in experiment [1], 160 nM; at human DGKα it was 570 nM.

`Cn1c(=O)c(C#N)c(N2CCN(Cc3cccc(Cl)c3)CC2)c2nc(Cl)ccc21` [Example 302, 6-chloro-4-{4-[(3-chlorophenyl)methyl]piperazin-1-yl}-1-methyl-2-oxo-1,2-dihydro-1,5-naphthyridine-3-carbonitrile]: the IC50 at human DGKζ is over 81000 nM; in experiment [1] it was 180 nM; at human DGKα it was 610 nM.

Regarding `Cn1c(=O)c(C#N)c(N2CCN(Cc3cccc4cc[nH]c34)CC2)c2nc(Cl)ccc21` [Example 303, 6-chloro-4-{4-[_(1H-indol-7-yl)methyl]piperazin-1-yl}-1-methyl-2-oxo-1,2-dihydro-1,5-naphthyridine-3-carbonitrile], the IC50 on human DGKζ is over 240000 nM; in experiment [1], 180 nM; on human DGKα it was 900 nM.

`Cn1c(=O)c(C#N)c(N2CCN(Cc3cccc(F)c3O)CC2)c2nc(Cl)ccc21` [Example 306, 6-chloro-4-{4-[(3-fluoro-2-hydroxyphenyl)methyl]piperazin-1-yl}-1-methyl-2-oxo-1,2-dihydro-1,5-naphthyridine-3-carbonitrile]: the results for the half-inhibitory concentration (IC50) (on human DGKζ; in experiment [1]; at human DGKα) were over 240000 nM, 210 nM and 200 nM, respectively.

On to `Cn1c(=O)c(C#N)c(N2CCN(Cc3cc(Cl)cc(Cl)c3O)CC2)c2nc(Cl)ccc21` [Example 307, 6-chloro-4-{4-[(3,5-dichloro-2-hydroxyphenyl)methyl]piperazin-1-yl}-1-methyl-2-oxo-1,2-dihydro-1,5-naphthyridine-3-carbonitrile], for which the half-maximal inhibitory concentration (IC50) was over 81000 nM at human DGKζ, 210 nM in experiment [1] and 1800 nM at human DGKα.

In the case of `Cn1c(=O)c(C#N)c(N2CCN(Cc3ccc(Cl)cc3Cl)CC2)c2nc(Cl)ccc21` [Example 310, 6-chloro-4-{4-[(2,4-dichlorophenyl)methyl]piperazin-1-yl}-1-methyl-2-oxo-1,2-dihydro-1,5-naphthyridine-3-carbonitrile], the IC50 on human DGKζ is over 240000 nM; in experiment [1], 220 nM; at human DGKα it was 970 nM.

As to `COc1cccc(O)c1CN1CCN(c2c(C#N)c(=O)n(C)c3ccc(Br)nc23)CC1` [Example 314, 6-bromo-4-{4-[(2-hydroxy-6-methoxyphenyl)methyl]piperazin-1-yl}-1-methyl-2-oxo-1,2-dihydro-1,5-naphthyridine-3-carbonitrile], the half-inhibitory concentration (IC50) at human DGKζ came out at 82000 nM; in experiment [1], 250 nM; at human DGKα, 170 nM.

Consider `Cn1c(=O)c(C#N)c(N2CCN(Cc3ccccc3O)CC2)c2nc(C#N)ccc21` [Example 317, 8-{4-[(2-hydroxyphenyl)methyl]piperazin-1-yl}-5-methyl-6-oxo-5,6-dihydro-1,5-naphthyridine-2,7-dicarbonitrile], for which the IC50 on human DGKζ was determined as 34000 nM; in experiment [1] it was 290 nM; at human DGKα, 160 nM.

`Cn1c(=O)c(C#N)c(N2CCN(Cc3cc(F)ccc3F)CC2)c2nc(Cl)ccc21` [Example 318, 6-chloro-4-{4-[(2,5-difluorophenyl)methyl]piperazin-1-yl}-1-methyl-2-oxo-1,2-dihydro-1,5-naphthyridine-3-carbonitrile]: the IC50 at human DGKζ was 140000 nM; in experiment [1] it was 290 nM; at human DGKα, 850 nM.

In the case of `Cn1c(=O)c(C#N)c(N2CCN(Cc3ccc(F)c(F)c3)CC2)c2nc(Cl)ccc21` [Example 319, 6-chloro-4-{4-[(3,4-difluorophenyl)methyl]piperazin-1-yl}-1-methyl-2-oxo-1,2-dihydro-1,5-naphthyridine-3-carbonitrile], the half-maximal inhibitory concentration (IC50) came out at 220000 nM on human DGKζ, 300 nM in experiment [1] and 550 nM at human DGKα.

`Cn1c(=O)c(C#N)c(N2CCN(Cc3cc(F)cc(F)c3O)CC2)c2nc(Br)ccc21` [Example 320, 6-bromo-4-{4-[(3,5-difluoro-2-hydroxyphenyl)methyl]piperazin-1-yl}-1-methyl-2-oxo-1,2-dihydro-1,5-naphthyridine-3-carbonitrile]: the IC50 at human DGKζ is over 240000 nM; in experiment [1] it was 300 nM; on human DGKα it was 890 nM.

Turning to `Cn1c(=O)c(C#N)c(N2CCN(Cc3cccc4cn[nH]c34)CC2)c2nc(Cl)ccc21` [Example 322, 6-chloro-4-{4-[(1H-indazol-7-yl)methyl]piperazin-1-yl}-1-methyl-2-oxo-1,2-dihydro-1,5-naphthyridine-3-carbonitrile], the IC50 was over 240000 nM on human DGKζ, 320 nM in experiment [1] and 2800 nM on human DGKα.

Turning to `Cn1c(=O)c(C#N)c(N2CCN(Cc3cc(F)cc(Cl)c3)CC2)c2nc(Cl)ccc21` [Example 324, 6-chloro-4-{4-[(3-chloro-5-fluorophenyl)methyl]piperazin-1-yl}-1-methyl-2-oxo-1,2-dihydro-1,5-naphthyridine-3-carbonitrile], the figures for the half-maximal inhibitory concentration (IC50) (on human DGKζ; in experiment [1]; on human DGKα) were over 240000 nM, 350 nM and 190 nM, respectively.

Take `Cn1c(=O)c(C#N)c(N2CCN(Cc3ccc(Cl)c(F)c3)CC2)c2nc(Cl)ccc21` [Example 326, 6-chloro-4-{4-[(4-chloro-3-fluorophenyl)methyl]piperazin-1-yl}-1-methyl-2-oxo-1,2-dihydro-1,5-naphthyridine-3-carbonitrile]: the concentration for half-maximal inhibition (IC50) is over 240000 nM on human DGKζ, 380 nM in experiment [1] and 1900 nM at human DGKα.

On to `COc1cccc(CN2CCN(c3c(C#N)c(=O)n(C)c4ccc(Cl)nc34)CC2)c1` [Example 327, 6-chloro-4-{4-[(3-methoxyphenyl)methyl]piperazin-1-yl}-1-methyl-2-oxo-1,2-dihydro-1,5-naphthyridine-3-carbonitrile], for which the half-inhibitory concentration (IC50) was 140000 nM on human DGKζ, 430 nM in experiment [1] and 660 nM on human DGKα.

As to `Cc1ccc(CN2CCN(c3c(C#N)c(=O)n(C)c4ccc(Cl)nc34)CC2)cc1O` [Example 328, 6-chloro-4-{4-[(3-hydroxy-4-methylphenyl)methyl]piperazin-1-yl}-1-methyl-2-oxo-1,2-dihydro-1,5-naphthyridine-3-carbonitrile], the IC50 at human DGKζ stood at 120000 nM; in experiment [1] it was 440 nM; on human DGKα, 1000 nM.

Take `Cn1c(=O)c(C#N)c(N2CCN(Cc3cccc(F)c3F)CC2)c2nc(Cl)ccc21` [Example 330, 6-chloro-4-{4-[(2,3-difluorophenyl)methyl]piperazin-1-yl}-1-methyl-2-oxo-1,2-dihydro-1,5-naphthyridine-3-carbonitrile]: the values for the half-maximal inhibitory concentration (IC50) (at human DGKζ; in experiment [1]; at human DGKα) were over 240000 nM, 500 nM and 3700 nM, respectively.

Take `COc1ccccc1CN1CCN(c2c(C#N)c(=O)n(C)c3ccc(Cl)nc23)CC1` [Example 331, 6-chloro-4-{4-[(2-methoxyphenyl)methyl]piperazin-1-yl}-1-methyl-2-oxo-1,2-dihydro-1,5-naphthyridine-3-carbonitrile]: the concentration for half-maximal inhibition (IC50) is over 240000 nM at human DGKζ, 520 nM in experiment [1] and 490 nM on human DGKα.

For the molecule `Cn1c(=O)c(C#N)c(N2CCN(Cc3cccc4cn[nH]c34)CC2)c2nc(Br)ccc21` [Example 333, 6-bromo-4-{4-[(1H-indazol-7-yl)methyl]piperazin-1-yl}-1-methyl-2-oxo-1,2-dihydro-1,5-naphthyridine-3-carbonitrile], the half-maximal inhibitory concentration (IC50) on human DGKζ was 230000 nM; in experiment [1], 540 nM; at human DGKα it was 5000 nM.

In the case of `Cc1ccc2c(n1)c(N1CCN(Cc3ccccc3O)CC1)c(C#N)c(=O)n2C` [Example 337, 4-{4-[(2-hydroxyphenyl)methyl]piperazin-1-yl}-1,6-dimethyl-2-oxo-1,2-dihydro-1,5-naphthyridine-3-carbonitrile], the IC50 at human DGKζ was over 81000 nM; in experiment [1], 550 nM; on human DGKα, 65 nM.

As a reminder, the IC50 is the point on the concentration scale where inhibition reaches its midpoint.
